The structures appear in SMILES notation. Where only a bound is given, the exact number is not on record here.

This is an account of results in patent publication US11090319B2, “Therapeutic uses of pharmaceutical compositions comprising cyclic boronic acid ester derivatives” (Melinta Subsidiary Corp., priority 2010, dated 2021).

Common to all, as to format: cell-based
Assay [1] concerns KP1011 Klebsiella pneumoniae SHV-5. Description: microbe, parasite or virus in culture. The following applies: Klebsiella pneumoniae, read-out: Ceftazidime MIC Alone. The procedure: (§1) Next, ceftazidime potentiation activity of several cyclic boronic acid ester derivatives was tested using a larger panel of strains expressing β-lactamase hydrolyzing enzymes. Ceftazidime MICs were determined alone and in the presence of fixed concentrations of various cyclic boronic acid ester derivatives.

Assay [2] has as its system AB1052 Acinetobacter baumannii OXA-24. Description: Ceftazidime MIC with fixed concentration of BLI. The following applies: Acinetobacter baumannii; AB1052 OXA-24; read-out: Ceftazidime MIC Alone. The protocol:
as §1

The test system of assay [3] is EC1007 Escherichia coli KPC-3. The assay is described as follows: Ceftazidime MIC with fixed concentration of BLI. The following applies: Escherichia coli; EC1007 KPC-3; read-out: Ceftazidime MIC Alone. The protocol:
as §1

The test system of assay [4] is CF1001 Citrobacter freundii Hyper AmpC expression. The assay is described as follows: Ceftazidime MIC with fixed concentration of BLI. The following applies: Citrobacter freundii, read-out: Ceftazidime MIC Alone. The protocol: as §1
The subject of assay [5] is ECL1003 Enterobacter cloacae Hyper AmpC expression. Description: Ceftazidime MIC with fixed concentration of BLI. The following applies: Enterobacter cloacae, read-out: Ceftazidime MIC Alone. The procedure: as §1
Assay [6] deals with KP1014 Klebsiella pneumoniae Vim-1. The assay is described as follows: Ceftazidime MIC with fixed concentration of BLI. The following applies: Klebsiella pneumoniae; KP1014 Vim-1; read-out: Ceftazidime MIC Alone. The protocol:
as §1

The test system of assay [7] is KP1006 Klebsiella pneumoniae CTX-M2. Description: Ceftazidime MIC with fixed concentration of BLI. Conditions: Klebsiella pneumoniae, read-out: Ceftazidime MIC Alone. The protocol: as §1
The subject of assay [8] is SA1000 Salmonella CMY-2. The assay is described as follows: Ceftazidime MIC with fixed concentration of BLI. Conditions: Salmonella; SA1000 CMY-2; read-out: Ceftazidime MIC Alone. The protocol: as §1
The test system of assay [9] is KP1013 Klebsiella pneumoniae CMY-2. The assay is described as follows: Ceftazidime MIC with fixed concentration of BLI. The following applies: Klebsiella pneumoniae; KP1013 CMY-2; read-out: Ceftazidime MIC Alone. The procedure:
as §1

Assay [10] has as its system EC1016 Escherichia coli FOX-5. Description: Ceftazidime MIC with fixed concentration of BLI. The following applies: Escherichia coli; EC1016 FOX-5; read-out: Ceftazidime MIC Alone. The procedure:
as §1

In assay [11] the test system is ec307 Escherichia coli SHV-4. Description: Ceftazidime MIC with fixed concentration of BLI. The following applies: Escherichia coli; ec307 SHV-4; read-out: Ceftazidime MIC Alone. The procedure: as §1

`CC(C)(O/N=C(\C(=O)N[C@@H]1C(=O)N2C(C(=O)[O-])=C(C[n+]3ccccc3)CS[C@H]12)c1csc(N)n1)C(=O)O` [Ceftazidime, reference compound]: the MIC in assay [1] is 1 to 8 µg/mL; in assay [2], over 8 µg/mL; in assay [3], over 8 µg/mL; in assay [4], over 8 µg/mL; in assay [5], over 8 µg/mL; in [6], over 8 µg/mL. Moreover, the MIC in assay [7] was 1 to 8 µg/mL; in assay [8], over 8 µg/mL; in assay [9], over 8 µg/mL; in [10], over 8 µg/mL; in assay [11], over 8 µg/mL.
